Measured values reported in US10435376B2, “Derivatives of 1H-imidazole-4,5-dicarboxamide and use thereof in preparation of anticoccidial drugs” (GUANGZHOU INSIGHTER BIOTECHNOLOGY CO., LTD., priority 2015, dated 2019).

Experiments:
Assay type in all cases: in vivo
[1] = system: Eimeria acervulina; test: Inhibitory effects of the derivatives on Eimeria acervulina of chicken; conditions: for anticoccidial activity in view of survival rate, relative weight gain and feed conversion ratio: 60 ppm, E. acervulina; for responders at 60 ppm, 60 µg/mL / response vs control in vivo at 60 ppm, 60 µg/mL: Eimeria acervulina, 168 h; for responders at 60 ppm, 60 µg/mL / response vs control in vivo at 60 ppm, 60 µg/mL / Feed conversion ratio: broilers, 60 ppm in feed, 400,000 E. acervulina oocysts; for responders at 60 ppm, 60 µg/mL: 7 days after inoculation, read-out: Survival rate (%); for response vs control in vivo at 60 ppm, 60 µg/mL: feed or water, read-out: Relative weight gain (%)
Description: (§1) Relative weight gain (%): The broilers were weighed at the beginning and the end of the trial to calculate the average weight gain and relative weigh gain. Relative weight gain=(average weight gain of each group/average weight gain of group 1)×100%.
(§2) Deaths of the broilers: Necropsy was performed and the amount of dead broilers in each group was recorded to calculate the survival rate. Survival rate=(total amount of the broilers in each group−amount of deaths caused by coccidial infection)/total amount of the broilers in each group×100%.
One-day-old yellow-feather fast-growing broilers were raised in a coccidia-free environment, and divided into groups for trial at the age of 18 days when no coccidian oocysts were detected by microscopy in their faeceas. Weak or overweight broilers were removed, and healthy broilers were divided into 10 groups with 50 broilers in each group and weight difference between each two broilers was below 20 g. Groups 1 and 2 were respectively a control group that the broilers were neither infected nor treated, and a control group that the broilers were infected but not treated. Groups 3 to 10 were respectively administrated with different derivatives. The broilers were given ad libitum access to feed and water when the feed was added with different medicines according to Table 3 at the day the broilers were divided. 24 Hours after the trial began, 400,000 sporulated Eimeria acervulina oocysts were inoculated via an oral gavage into the crop of every broiler in each group except group 1. The trial was ended 7 days after the inoculation. Relative weight gain (%), survival rate (%) and feed conversion ratio were evaluated.

[2] = system: Eimeria tenella; test: Inhibitory effects of the derivatives of different dosages on Eimeria tenella of chicken; parameters: key to Score (bloody stool score): 0 = no bloody stool to 4 = bloody stool over 75%; conditions: broilers, E. tenella; for Score (bloody stool score): 5 days after inoculation
Description: (§3) Bloody stool score: 0, no bloody stool was observed; 1, bloody stool below 25%; 2, 25 to 50% of bloody stool; 3, 50 to 75% of bloody stool; and 4, bloody stool over 75%.
as §1, §2
(§4) One-day-old yellow-feather fast-growing broilers were raised in a coccidia-free environment, and divided into groups for trial at the age of 18 days when no coccidian oocysts were detected by microscopy in their faeceas. Weak or overweight broilers were removed, and healthy broilers were divided into 16 groups with 50 broilers in each group and weight difference between each two broilers was below 20 g. Groups 1 and 2 were respectively a control group that the broilers were neither infected nor treated, and a control group that the broilers were infected but not treated. Groups 3 to 16 were respectively administrated with different kinds or different dosages of derivatives. The broilers were given ad libitum access to feed and water when the feed was added with different medicines according to Table 2 at the day the broilers were divided. 24 Hours after the trial began, 250,000 sporulated Eimeria tenella oocysts were inoculated via an oral gavage into the crop of every broiler in each group except group 1. Bloody stool score was measured 5 days after the inoculation and the trial was ended 7 days after the inoculation. Relative weight gain (%), survival rate (%) and the bloody stool score were evaluated (according to embodiment 2).

[3] = system: Eimeria tenella; test: Inhibitory effects of the derivatives on Eimeria tenella of chicken (60 ppm in feed); conditions: for anticoccidial activity in view of survival rate, bloody stool score and relative weight gain: 60 ppm, E. tenella; for responders at 60 ppm, 60 µg/mL / response vs control in vivo at 60 ppm, 60 µg/mL: Eimeria tenella, 168 h; for responders at 60 ppm, 60 µg/mL / response vs control in vivo at 60 ppm, 60 µg/mL / Score (bloody stool score): broilers, 60 ppm in feed, 250,000 E. tenella oocysts; for responders at 60 ppm, 60 µg/mL: 7 days after inoculation, read-out: Survival rate (%); for response vs control in vivo at 60 ppm, 60 µg/mL: relative to group 1 (not infected, not treated), read-out: Relative weight gain (%); for Score (bloody stool score): 5 days after inoculation
Source text: as §4, with “into 30” for “into 16”, “to 30” for “to 16”, “different” for “different kinds or different dosages of”, “Table 1” for “Table 2”, “were evaluated.” for “were evaluated (according to embodiment 2).”
as §3, §1, §2

[4] = system: Eimeria necatrix; test: Inhibitory effects of the derivatives on Eimeria necatrix of chicken; conditions: for anticoccidial activity in view of survival rate, bloody stool score and relative weight gain: 60 ppm, E. necatrix; for responders at 60 ppm, 60 µg/mL / response vs control in vivo at 60 ppm, 60 µg/mL: Eimeria necatrix, 168 h; for responders at 60 ppm, 60 µg/mL: read-out: Survival rate (%); for response vs control in vivo at 60 ppm, 60 µg/mL: feed or water, read-out: Relative weight gain (%); for response vs control in vivo at 60 ppm, 60 µg/mL / Score (bloody stool score): broilers, 60 ppm in feed, 100,000 E. necatrix oocysts; for Score (bloody stool score): 5 days after inoculation
Description: as §3, §1, §2
as §4, with “into 10” for “into 16”, “to 10” for “to 16”, “different” for “different kinds or different dosages of”, “Table 4” for “Table 2”, “began, 100,000” for “began, 250,000”, “Eimeria necatrix” for “Eimeria tenella”

## NC(=O)c1ncn(Cc2c(F)cccc2Cl)c1C(N)=O [IST15031, 1-(2-chloro-6-fluorobenzyl)-1H-imidazole-4,5-dicarboxamide]
[1]
  anticoccidial activity in view of survival rate, relative weight gain and feed conversion ratio: highest anticoccidial activities
  responders at 60 ppm, 60 µg/mL: 100%
  response vs control in vivo at 60 ppm, 60 µg/mL: 94.8%
  Feed conversion ratio: 2.179
[2]; 5 ppm in feed
  Relative weight gain (%): 67.8%
  Survival rate (%): 76%
  Score (bloody stool score): 4 (bloody stool over 75%)
[2]; 10 ppm in feed
  Relative weight gain (%): 72.3%
  Survival rate (%): 88%
  Score (bloody stool score): 4 (bloody stool over 75%)
[2]; 20 ppm in feed
  Relative weight gain (%): 79.8%
  Survival rate (%): 100%
  Score (bloody stool score): 2 (25 to 50% of bloody stool)
[2]; 50 ppm in feed
  Relative weight gain (%): 90.5%
  Survival rate (%): 100%
  Score (bloody stool score): 1 (bloody stool below 25%)
[2]; 100 ppm in feed
  Relative weight gain (%): 98.9%
  Survival rate (%): 100%
  Score (bloody stool score): 0
[2]; 200 ppm in feed
  Relative weight gain (%): 102.5%
  Survival rate (%): 100%
  Score (bloody stool score): 0
[2]; 500 ppm in feed
  Relative weight gain (%): 100.4%
  Survival rate (%): 100%
  Score (bloody stool score): 0
[3]
  anticoccidial activity in view of survival rate, bloody stool score and relative weight gain: highest anticoccidial activities
  responders at 60 ppm, 60 µg/mL: 100%
  response vs control in vivo at 60 ppm, 60 µg/mL: 95.8%
  Score (bloody stool score): 1 (bloody stool below 25%)
[4]
  anticoccidial activity in view of survival rate, bloody stool score and relative weight gain: highest anticoccidial activities
  responders at 60 ppm, 60 µg/mL: 100%
  response vs control in vivo at 60 ppm, 60 µg/mL: 92.5%
  Score (bloody stool score): 1 (bloody stool below 25%)

## NC(=O)c1ncn(Cc2ccc(C(F)(F)F)cc2)c1C(N)=O [IST15051, 1-(4-(trifluromethyl)benzyl)-1H-imidazole-4,5-dicarboxamide]
[1]
  anticoccidial activity in view of survival rate, relative weight gain and feed conversion ratio: highest anticoccidial activities
  responders at 60 ppm, 60 µg/mL: 100%
  response vs control in vivo at 60 ppm, 60 µg/mL: 102%
  Feed conversion ratio: 2.109
[2]; 5 ppm in feed
  Relative weight gain (%): 80.4%
  Survival rate (%): 96%
  Score (bloody stool score): 4 (bloody stool over 75%)
[2]; 10 ppm in feed
  Relative weight gain (%): 88.6%
  Survival rate (%): 100%
  Score (bloody stool score): 2 (25 to 50% of bloody stool)
[2]; 20 ppm in feed
  Relative weight gain (%): 95.9%
  Survival rate (%): 100%
  Score (bloody stool score): 0
[2]; 50 ppm in feed
  Relative weight gain (%): 98.7%
  Survival rate (%): 100%
  Score (bloody stool score): 0
[2]; 100 ppm in feed
  Relative weight gain (%): 101.2%
  Survival rate (%): 100%
  Score (bloody stool score): 0
[2]; 200 ppm in feed
  Relative weight gain (%): 99.4%
  Survival rate (%): 100%
  Score (bloody stool score): 0
[2]; 500 ppm in feed
  Relative weight gain (%): 103.6%
  Survival rate (%): 100%
  Score (bloody stool score): 0
[3]
  anticoccidial activity in view of survival rate, bloody stool score and relative weight gain: highest anticoccidial activities
  responders at 60 ppm, 60 µg/mL: 100%
  response vs control in vivo at 60 ppm, 60 µg/mL: 101%
  Score (bloody stool score): 0
[4]
  anticoccidial activity in view of survival rate, bloody stool score and relative weight gain: highest anticoccidial activities
  responders at 60 ppm, 60 µg/mL: 100%
  response vs control in vivo at 60 ppm, 60 µg/mL: 99.5%
  Score (bloody stool score): 0

## NC(=O)c1ncn(Cc2ccc([N+](=O)[O-])cc2)c1C(N)=O [IST15045, 1-(4-nitrobenzyl)-1H-imidazole-4,5-dicarboxamide]
[1]
  anticoccidial activity in view of survival rate, relative weight gain and feed conversion ratio: highest anticoccidial activities
  responders at 60 ppm, 60 µg/mL: 100%
  response vs control in vivo at 60 ppm, 60 µg/mL: 98.7%
  Feed conversion ratio: 2.158
[3]
  anticoccidial activity in view of survival rate, bloody stool score and relative weight gain: highest anticoccidial activities
  responders at 60 ppm, 60 µg/mL: 100%
  response vs control in vivo at 60 ppm, 60 µg/mL: 104%
  Score (bloody stool score): 0
[4]
  anticoccidial activity in view of survival rate, bloody stool score and relative weight gain: highest anticoccidial activities
  responders at 60 ppm, 60 µg/mL: 100%
  response vs control in vivo at 60 ppm, 60 µg/mL: 102%
  Score (bloody stool score): 0

## CCCn1cnc(C(N)=O)c1C(N)=O [IST15038, 1-propyl-1H-imidazole-4,5-dicarboxamide]
[1]
  responders at 60 ppm, 60 µg/mL: 100%
  response vs control in vivo at 60 ppm, 60 µg/mL: 73.8%
  Feed conversion ratio: 2.135
[3]
  responders at 60 ppm, 60 µg/mL: 100%
  response vs control in vivo at 60 ppm, 60 µg/mL: 82.1%
  Score (bloody stool score): 3 (50 to 75% of bloody stool)
[4]
  responders at 60 ppm, 60 µg/mL: 100%
  response vs control in vivo at 60 ppm, 60 µg/mL: 79.5%
  Score (bloody stool score): 2 (25 to 50% of bloody stool)

## NC(=O)c1ncn(Cc2ccccc2F)c1C(N)=O [IST15043, 1-(2-fluorobenzyl)-1H-imidazole-4,5-dicarboxamide]
[1]
  anticoccidial activity in view of survival rate, relative weight gain and feed conversion ratio: highest anticoccidial activities
  responders at 60 ppm, 60 µg/mL: 100%
  response vs control in vivo at 60 ppm, 60 µg/mL: 99.4%
  Feed conversion ratio: 2.139
[3]
  anticoccidial activity in view of survival rate, bloody stool score and relative weight gain: highest anticoccidial activities
  responders at 60 ppm, 60 µg/mL: 100%
  response vs control in vivo at 60 ppm, 60 µg/mL: 98.7%
  Score (bloody stool score): 0
[4]
  anticoccidial activity in view of survival rate, bloody stool score and relative weight gain: highest anticoccidial activities
  responders at 60 ppm, 60 µg/mL: 100%
  response vs control in vivo at 60 ppm, 60 µg/mL: 102%
  Score (bloody stool score): 0
